Results published in patent US12486234B2, “PAPD5 inhibitors and methods of use thereof” (Children's Medical Center Corporation, priority 2019, dated 2025).

Experiments:
PAPD5 [1] = molecular target: T1, PAPD5 (Homo sapiens, UniProt Q8NDF8); assay: RNA oligo-adenylation (oligo-extension) inhibition assay with recombinant PAPD5; type: biochemical; set-up: key: minimal activity (0); range from minimal activity (0) to that of compound 1 (+++); range from minimal activity (0) to that of compound 1 (+++); that of compound 1 (+++); settings: qualitative measure of RNA oligo-extension inhibition, relative to compound 1
T1 construct: made in house
Experimental: An in vitro RNA polyadenylation assay using recombinant PAPD5, ATP and an oligonucleotide substrate utilized the following phenomenon: ATP utilization by PAPD5 reads out as a decreased luminescence signal produced by luciferase (KinaseGlo, Promega, Madison, WI).
(§1) Qualitative measure of RNA oligo-extension inhibition for the tested compounds, expressed as range from minimal activity (0) to that of compound 1 (+++), and results of a DSF binding assay (shown as shift in temperature at 100 μM of the compound) are shown in the Table 2 below.

PAPD5 [2] = molecular target: T1, PAPD5; assay: DSF binding assay (shift in temperature); settings: shift in temperature at 100 μM of the compound
Experimental: as §1

T1 sequence (Q8NDF8 68-698 isoform Q8NDF8-5 limits assumed): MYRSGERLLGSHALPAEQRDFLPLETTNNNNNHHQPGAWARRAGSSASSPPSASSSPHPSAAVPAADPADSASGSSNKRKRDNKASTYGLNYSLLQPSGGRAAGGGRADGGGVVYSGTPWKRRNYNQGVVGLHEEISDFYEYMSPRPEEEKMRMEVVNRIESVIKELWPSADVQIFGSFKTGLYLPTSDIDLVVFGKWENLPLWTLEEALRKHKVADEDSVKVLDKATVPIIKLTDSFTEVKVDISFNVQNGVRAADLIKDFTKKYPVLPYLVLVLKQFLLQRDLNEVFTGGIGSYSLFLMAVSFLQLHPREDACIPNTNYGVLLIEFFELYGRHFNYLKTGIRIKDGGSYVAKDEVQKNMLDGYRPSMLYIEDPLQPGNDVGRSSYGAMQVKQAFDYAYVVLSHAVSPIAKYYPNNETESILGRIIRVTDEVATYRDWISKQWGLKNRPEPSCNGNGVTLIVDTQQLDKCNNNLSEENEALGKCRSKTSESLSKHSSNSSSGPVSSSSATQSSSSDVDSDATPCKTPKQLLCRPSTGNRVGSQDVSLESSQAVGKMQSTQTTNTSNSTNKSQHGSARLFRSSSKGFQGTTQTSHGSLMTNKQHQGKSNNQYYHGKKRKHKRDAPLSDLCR

SMILES	Inhibition of PAPD5 RNA oligo adenylation (PAPD5 [1])	ΔTm at 100 µM (PAPD5 [2]) [°C]
COCCCOc1cc2ncc(C(=O)N(C)C)c(Nc3ccccc3C(=O)O)c2cc1Br [Compound 57A, 2-[[6-bromo-3-(dimethylcarbamoyl)-7-(3-methoxypropoxy)-4-quinolyl]amino]benzoic acid]	+++	9.8
COCCCOc1cc2ncc(-c3ncco3)c(Nc3ccccc3C(=O)O)c2cc1OC [Compound 58A, 2-[[6-methoxy-7-(3-methoxypropoxy)-3-oxazol-2-yl-4-quinolyl]amino]benzoic acid]	+	8.5
NS(=O)(=O)c1cnc2ccc(Br)cc2c1Nc1ccccc1C(=O)O [Compound 61A, 2-[(6-bromo-3-sulfamoyl-4-quinolyl)amino]benzoic acid]	+++	11.1
NS(=O)(=O)c1cnc2ccc(Cl)cc2c1Nc1ccccc1C(=O)O [Compound 63A, 2-[(6-chloro-3-sulfamoyl-4-quinolyl)amino]benzoic acid]	+++	9.3
O=C(O)c1ccccc1Nc1c(S(=O)(=O)N2CCOCC2)cnc2ccc(Br)cc12 [Compound 70A, 2-[(6-bromo-3-morpholinosulfonyl-4-quinolyl)amino]benzoic acid]	+++	13.7
O=C(O)c1c(O)cccc1Nc1c(S(=O)(=O)N2CCOCC2)cnc2ccc(Br)cc12 [Compound 78A, 2-[(6-bromo-3-morpholinosulfonyl-4-quinolyl)amino]-6-hydroxy-benzoic acid]	+++	17.1
COc1cccc(Nc2c(S(=O)(=O)N3CCOCC3)cnc3ccc(Br)cc23)c1C(=O)O [Compound 78A-INT, 2-[(6-bromo-3-morpholinosulfonyl-4-quinolyl)amino]-6-methoxy-benzoic acid]	0	1.1
O=C(O)c1ccccc1Nc1c(S(=O)(=O)N2CCOCC2)cnc2ccc(Cl)cc12 [Compound 80A, 2-[(6-chloro-3-morpholinosulfonyl-4-quinolyl)amino]benzoic acid]	+++	16.4
O=C(O)c1c(O)cccc1Nc1c(-c2ncco2)cnc2ccc(Cl)cc12 [Compound 82A, 2-[(6-chloro-3-oxazol-2-yl-4-quinolyl)amino]-6-hydroxy-benzoic acid]	+++	13.5
